Reference: ChEMBL document CHEMBL5260828, “Amphiphilic glycoconjugates as potential anti-cancer chemotherapeutics” (Eur J Med Chem, 2018)
≈ marks a conversion by molar mass, not a printed value. Each block holds one compound with its values, some of them ahead of it.

How the values were obtained:
[1] = system: MDA-MB-435; assay: Inhibition of cell migration in human MDA-MB-435 cells incubated for 24 hrs by hematoxylin staining based assay; format: functional; details: MDA-MB-435, 24 h
[2] = system: ACHN; assay: Cytotoxicity against human ACHN cells; format: functional, cell-based
[3] = system: ACHN; assay: Cytotoxicity against human ACHN cells assessed as cell viability at 5 mM in presence of paclitaxel; format: functional; details: read-out: Activity
[4] = system: ACHN; assay: Cytotoxicity against human ACHN cells assessed as cell viability; format: functional
[5] = system: MKN-45; assay: Cytotoxicity against human MKN-45 cells; format: functional, cell-based
[6] = Cytotoxicity against human HEK293F cells; format: toxicity, cell-based
[7] = system: HeLa; assay: Cytotoxicity against human HeLa cells; format: functional, cell-based
[8] = Cytotoxicity against rat Highly aggressively proliferating immortalized Microglia cells assessed as inhibition of cell growth incubated for 24 hrs by CTG luminescence assay; format: toxicity, cell-based
[9] = Cytotoxicity against mouse BV-2 cells assessed as inhibition of cell growth incubated for 24 hrs by CTG luminescence assay; format: toxicity, cell-based
[10] = system: A549; assay: Cytotoxicity against human A549 cells assessed as inhibition of cell growth by measuring its effective dose; format: functional; details: read-out: ED50 (the source's name)
[11] = system: HCT-15; assay: Cytotoxicity against human HCT-15 cells assessed as inhibition of cell growth by measuring its effective dose; format: functional; details: read-out: ED50 (the source's name)
[12] = system: XF498; assay: Cytotoxicity against human XF498 cells assessed as inhibition of cell growth by measuring its effective dose; format: functional; details: read-out: ED50 (the source's name)
[13] = system: SK-MEL-2; assay: Cytotoxicity against human SK-MEL-2 cells assessed as inhibition of cell growth by measuring its effective dose; format: functional; details: read-out: ED50 (the source's name)
[14] = system: SK-OV-3; assay: Cytotoxicity against human SK-OV-3 cells assessed as inhibition of cell growth by measuring its effective dose; format: functional; details: read-out: ED50 (the source's name)
[15] = system: C6; assay: Antimitotic activity against rat C6 cells assessed as inhibition of cell proliferation by measuring inhibitory dose by [3H]-thymidine incorporation based […]; format: functional; details: read-out: ID50 (the source's name)
[16] = system: MDA-MB-231; assay: Cytotoxicity against human MDA-MB-231 cells assessed as inhibition of cell proliferation by MTT colorimetric assay; format: functional, cell-based
[17] = system: HSC-2; assay: Cytotoxicity against human HSC-2 cells assessed as inhibition of cell proliferation by MTT colorimetric assay; format: functional, cell-based
[18] = system: A549; assay: Cytotoxicity against human A549 cells assessed as inhibition of cell proliferation by MTT colorimetric assay; format: functional, cell-based
[19] = system: Ca9-22; assay: Cytotoxicity against human Ca9-22 cells assessed as inhibition of cell proliferation by MTT colorimetric assay; format: functional, cell-based
[20] = system: KB; assay: Cytotoxicity against human KB cells by MTT assay; format: functional, cell-based
[21] = system: K562; assay: Cytotoxicity against human K562 cells by MTT assay; format: functional, cell-based
[22] = system: K562; assay: Antiproliferative activity against human K562 cells assessed as reduction in cell viability incubated for 48 hrs by CCK-8 assay; format: functional, cell-based; details: K562, 48 h
[23] = system: HCT-116; assay: Antiproliferative activity against human HCT-116 cells assessed as inhibition of cell proliferation; format: functional, cell-based
[24] = system: MCF7; assay: Antiproliferative activity against human MCF7 cells assessed as inhibition of cell proliferation; format: functional, cell-based
[25] = system: P388; assay: Cytotoxicity against mouse P388 cells; format: functional, cell-based; details: Mus musculus, P388; read-out: IC50
[26] = system: L1210; assay: Cytotoxicity against mouse L1210 cells; format: functional, cell-based

Structure (SMILES): CCCCCCCCCCCCCCCCOCC(COC1O[C@H](CO)[C@@H](O[C@@H]2O[C@H](CO)[C@H](O)[C@H](O)[C@H]2O)[C@H](O)[C@H]1O)OC (stereo partly drawn)
- IC50 [1]: 0.3 µM

Structure (SMILES): CCCCCCCC(=O)O[C@H]1[C@H](OC[C@H](O)[C@H](O)[C@@H](O)[C@@H](O)CO)O[C@H](COC(=O)CCCCC)[C@@H](OC(=O)CCCCC)[C@@H]1OC(=O)CCCCC
- IC50 [2]: 17 µM
- viability at 5000 µM [3]: 40.6%
- Activity [4]: 63.8%
- IC50 [5]: 14.9 µM
- IC50 [6]: 18.1 µM
- IC50 [7]: 16.7 µM

Structure (SMILES): CCCCCCC[C@@H](CC(=O)N[C@H](CO)CC(C)C)OC(=O)C[C@H](CCCCCCC)OC(=O)C[C@H](CCCCCCC)O[C@@H]1O[C@@H](C)[C@H](O)[C@@H](O)[C@H]1O
- IC50 at 24 h [8]: 22 µM
- IC50 at 24 h [9]: 6.9 µM

Structure (SMILES): CCCCCCCCCCCCCCCCOC[C@H](O)COC1[C@@H](O)[C@H](O)[C@@H](O)[C@@H]1O
- EC50 [10]: 4.3 µg/mL (≈ 9.58 µM)
- EC50 [11]: 4.3 µg/mL (≈ 9.58 µM)
- EC50 [12]: 4.3 µg/mL (≈ 9.58 µM)
- EC50 [13]: 4.3 µg/mL (≈ 9.58 µM)
- EC50 [14]: 4.3 µg/mL (≈ 9.58 µM)

Structure (SMILES): CO[C@@H]1O[C@H](CO)[C@@H](O[C@@H]2O[C@H](CO)[C@H](OS(=O)(=O)O)[C@H](O)[C@H]2O)[C@H](O[C@@H]2O[C@@H](C)[C@@H](O)[C@@H](O)[C@@H]2O)[C@H]1O
- IC50 [15]: 79 µM

Structure (SMILES): C=CCCCC[C@@H](C)O[C@@H]1O[C@@H](C)[C@H](OC(=O)C[C@H]2C[C@@H]3O[C@]4(C)CC[C@H]5[C@H](C)CC[C@@H]([C@H]2C)[C@@]35OO4)C[C@H]1O
- IC50 [16]: 15.1 µM
- IC50 [17]: 15.1 µM
- IC50 [18]: 15.1 µM
- IC50 [19]: 15.1 µM

Structure (SMILES): C/C=C(\C)[C@H](O)[C@H](C)/C=C/C=C/C/C(C)=C/Cc1nc(OC)c(OC)c(OC2O[C@@H](C)[C@H](O)[C@@H](O)[C@H]2O)c1C (stereo partly drawn)
- IC50 [20]: 4.5 µg/mL (≈ 8.22 µM)
- IC50 [21]: 2.9 µg/mL (≈ 5.29 µM)

- IC50 [22]: 19.8 µM
Structure (SMILES): CCCCCCCCCCN1C[C@H](NC(C)=O)[C@@H](O)[C@H](O)C1=O

- IC50 [23]: 0.003 µM
- IC50 [24]: 0.003 µM
Structure (SMILES): CCC/C=C\C[C@@H](O[C@H](/C=C/[C@@H](C/C=C\CCCC(=O)OC)OC[C@H]1O[C@@H](OC[C@H](O)CO)[C@H](O)[C@@H](O)[C@@H]1O)[C@H](O)C/C=C\CCCCC)[C@H](O)/C=C/[C@@H](O)CCCCC(=O)OC

Structure (SMILES): CO[C@@H]1[C@H](O[C@@H]2CO[C@@H](O[C@@H]3[C@@H](O)[C@H](O)CO[C@H]3N3C(=O)/C(=C(O)/C=C/C=C/C=C/C=C/C=C(Cl)/C=C(\C)Cl)C(=O)[C@@H]3CC(N)=O)[C@@H](O)[C@@H]2O)O[C@H](C)[C@H]1O [AURANTOSIDE A]
- IC50 [25]: 1.8 µg/mL (≈ 2.2 µM)
- IC50 [26]: 3.4 µg/mL (≈ 4.16 µM)

Structure (SMILES): C\C(Cl)=C/C(Cl)=C/C=C/C=C/C=C/C=C/C(O)=C1\C(=O)[C@H](CC(N)=O)N([C@@H]2OC[C@@H](O)[C@H](O)[C@H]2O[C@@H]2OC[C@@H](O[C@@H]3O[C@H](C)[C@@H](O)[C@@H]3O)[C@@H](O)[C@@H]2O)C1=O [AURANTOSIDE B]
- IC50 [25]: 3.2 µg/mL (≈ 3.98 µM)
- IC50 [26]: 3.3 µg/mL (≈ 4.11 µM)
